Measured values published in patent US9944607B2, “Thiohydantoin derivatives and uses thereof” (Whitehead Institute for Biomedical Research, priority 2012, dated 2018).
Converted amounts (≈) assume the structure as drawn. Like-named read-outs stand apart in the source and are kept apart here.

Assays:
[1] = test system: Candida albicans CaCi-2; assay: Primary assay: C. albicans CaCi-2 growth inhibition (Alamar Blue); format: cell-based; as to Growth Inhibition Activity, IC50 (μM), C. albicans CaCi-2, values marked ‡: less than 0.10 µM in AID 623899
[2] = test system: Candida albicans CaCi-17; assay: Primary assay: C. albicans CaCi-17 growth inhibition (Alamar Blue); format: cell-based; conditions: Candida albicans, read-out: Growth Inhibition Activity, IC50 (μM), C. albicans (n = 3) CaCi-17
[3] = test system: NIH-3T3 mammalian fibroblasts; assay: Counterscreen mammalian cell toxicity assay (Alamar Blue); format: cell-based, murine; conditions: for Growth Inhibition Activity, IC50 (μM), 3T3 Fibroblasts (n = 1): Table 4, 48 hours, tested up to 26 μM
Description: Quiescent murine fibroblasts were subjected to incubation with compounds of interest for 48 hours. Subsequent cell viability was determined via measuring Alamar Blue fluorescence.
Procedures • After overnight culture, pin compounds into wells at 100 nL/well using the CyBio CyBi-Well pinning instrument. • Return the plates to the tissue culture incubator and incubate the culture for an additional 48 hours at 37° C. under 5% CO2. • At the completion of this incubation, add Alamar Blue solution diluted 1:40 in PBS to each well (10 μL/well) to achieve a final dilution of 1:200. • Incubate the plates for an additional 2-3 hours at 37° C. under 5% CO2. • Read the Relative Fluorescence Intensity (RFU) of wells on a standard plate reader as a measure of relative cell growth. […] 4.4.

[4] = test system: C. glabrata (ATCC 2001); assay: Secondary C. glabrata inhibition in glycerol media (OD600); format: cell-based, Candida glabrata; conditions: for IC50: read-out: Growth Inhibition Activity, IC50 (μM), C. glabrata (n = 3) On glycerol
Excerpt: (§1) Cell Lines. • Candida albicans CaCi-2; a drug-resistant clinical isolate was provided by the Whitehead Institute (Redding et al., Clin. Infect. Dis. 1994, 18(2):240-2). This strain was used for the primary assay. • Candida albicans CaCi-17; a strongly drug-resistant clinical isolate was provided by the Whitehead Institute (Redding et al., Clin. Infect. Dis. 1994, 18(2):240-2). This strain was used for the primary assay • Saccharyomyces cerevisiae W303-1a (ATCC 208352); a well-characterized Saccharomyces strain used for determination of glycolytic vs. respiratory metabolism, as well as in the mitochondrial disruption assay. • Candida glabrata (ATCC 2001); used for determination of glycolytic vs. respiratory metabolism. • NIH-3T3 mammalian fibroblasts (ATCC; CRL no.1658); used for mammalian toxicity assays. […]
(§2) Saccharomyces, while not a major human pathogen, is a useful lab model with well-developed genetic tools available. Candida glabrata is an increasingly prominent clinical problem for immune-compromised patients but with fewer genetic tools available with which to study it. These organisms can utilize alternative metabolic pathways to support growth and survival depending on the carbon source. By comparing the concentration-dependent inhibition of yeast growth in glycerol relative to glucose media, a quantitative assessment of a compound's ability to disrupt respiration can be determined. […].
(§3) Clear, flat bottom, black 384-well plates (Corning Catalog no. 3712BC; Lot no. 35808016); Amphotericin B (Sigma Catalog no. A2411) 15 mM stock solution in DMSO; Pen/Strep (Gibco Catalog no. 10378-016; Lot no21040170) 100× in PBS.
(§4) Synthetic defined growth medium. Complete Supplement Mixture; (Sunrise Science, Catalog No. 1001-100); Yeast Nitrogen Base without ammonium sulfate (MP Biomedicals, Catalog No. 4027-012); Glycerol (Sigma Catalog No. G-9012). • Prepare medium by dissolving 0.79 g Complete Supplement Mixture and 1.7 g Yeast Nitrogen Base in 800 mL water. • Add 20 mL of glycerol. Adjust final volume to 1000 mL. Filter sterilize.
(§5) Fungal Inoculum. Test Strains: C. glabrata (ATCC 2001) and Saccharomyces cerevisiae W303. • Inoculate 100 μL of yeast from cryopreserved stock into 250 mL shaker flask containing 20 mL growth medium. Shake at 30° C. overnight (about 16 hours). • Read OD 600 of 1 mL of fungal culture in a cuvette using a standard optical density reader (Eppendorf BioPhotometer Plus), with growth medium as a background blank. • Dilute to desired volume of fungal inoculum to produce an OD600 reading of 0.005 (S. cerevisiae) or 0.004 (C. glabrata).
(§6) Procedures • Use a Thermo Combi nL to dispense 20 μL/well of assay media into all wells. • Add 2 μL of Amphotericin B to control wells. • Pin 100 nL of test compound from compound plates into assay plates using a CyBi-Well pin tool. • Dispense 20 μL/well of culture into the assay media in all wells. • Incubate the plates in a humidified (90% humidity) Liconic incubator at 37° C. without agitation for 48 hours. • Shake plates briefly. • Read OD600 of wells on a standard plate reader as measure of relative fungal growth. Envision (Perkin Elmer) plate reader settings: Ex Photometric 600, Top read. Secondary Glucose Assay Protocol (AID 623971, 623967, 624013, 624025) Materials and Reagents

[5] = test system: C. glabrata (ATCC 2001); assay: Secondary C. glabrata inhibition in glucose media (OD600); format: cell-based, Candida glabrata; conditions: for IC50: read-out: Growth Inhibition Activity, IC50 (μM), C. glabrata (n = 3) On glucose
Excerpt: as §1, §2, §6
(§7) Clear, flat bottom, black 384-well plates (Corning, Catalog No. 3712BC; Lot No. 35808016); Amphotericin B (Sigma, Catalog no. A2411) 15 mM stock solution in DMSO; Pen/Strep (Gibco, Catalog No. 10378-016; Lot no21040170) 100× in PBS.
(§8) Synthetic defined growth medium. Complete Supplement Mixture; (Sunrise Science, Catalog No. 1001-100); Yeast Nitrogen Base without ammonium sulfate (MP Biomedicals, Catalog No. 4027-012); Glucose (Sigma, Catalog No. G7021). • Prepare medium by dissolving 0.79 g of Complete Supplement Mixture and 1.7 g of Yeast Nitrogen Base in 800 mL of water. • Add 20 g of glucose. Adjust final volume to 1000 mL. Filter sterilize.
as §5, with “Inoculate […] of yeast” for “Inoculate 100 μL of yeast”, “stock into a 250 mL” for “stock into 250 mL”, “20 mL of growth medium.” for “20 mL growth medium.”
as §6, with “read. 4.5.” for “read.”, “Mitochondrial Disruption” for “Glucose”, “Assay” for “Assay Protocol”, “No. 624062” for “623971, 623967, 624013, 624025) Materials”, “624068)” for “Reagents”

[6] = test system: Saccharomyces cerevisiae W303; assay: Secondary S. cerevisiae inhibition in glycerol media (OD600); format: cell-based; conditions: for IC50: read-out: Growth Inhibition Activity, IC50 (μM), S. cerevisiae (n = 3) On glycerol
Excerpt: as §1, §2, §3, §4, §5, §6

[7] = test system: Saccharomyces cerevisiae W303; assay: Secondary S. cerevisiae inhibition in glucose media (OD600); format: cell-based; conditions: for IC50: read-out: Growth Inhibition Activity, IC50 (μM), S. cerevisiae (n = 3) On glucose
Excerpt: as §1, §2, §6, §7, §8
as §5, with “Inoculate […] of yeast” for “Inoculate 100 μL of yeast”, “stock into a 250 mL” for “stock into 250 mL”, “20 mL of growth medium.” for “20 mL growth medium.”
as §6, with “read. 4.5.” for “read.”, “Mitochondrial Disruption” for “Glucose”, “Assay” for “Assay Protocol”, “No. 624062” for “623971, 623967, 624013, 624025) Materials”, “624068)” for “Reagents”

[8] = Solubility in PBS pH 7.4 with 1% DMSO; conditions: for solubility at 24 h: phosphate buffered saline with 1% DMSO, pH 7.4, aqueous buffer, kinetic from dmso stock
Description: Solubility was determined in phosphate buffered saline (PBS) pH 7.4 with 1% DMSO. Each compound was prepared in duplicate at 100 μM in both 100% DMSO and PBS with 1% DMSO. Compounds were allowed to equilibrate at room temperature with a 250 rpm orbital shake for 24 hours. After equilibration, samples were analyzed by UPLC-MS (Waters, Milford, Mass.) with compounds detected by SIR detection on a single quadrupole mass spectrometer. The DMSO samples were used to create a two-point calibration curve to which the response in PBS was fit.

[9] = Nakaseomyces glabratus, ATCC2001, 48 h
[10] = Saccharomyces cerevisiae, W303, 48 h
[11] = Candida albicans, CACI2; read-out: Growth Inhibition Activity, IC50 (μM), C. albicans CaCi-2, values marked ‡
[12] = CACI17, Table 4, n = 3, 48 hours, tested up to 26 μM
[13] = Nakaseomyces glabratus, ATCC2001, Table 8, n = 3, glycerol media, 48 hours, tested up to 3 μM
[14] = Nakaseomyces glabratus, ATCC2001, Table 8, n = 3, glucose media, 48 hours, tested up to 3 μM
[15] = Saccharomyces cerevisiae, W303, Table 8, n = 3, glycerol media, 48 hours, tested up to 3 μM
[16] = Saccharomyces cerevisiae, W303, Table 8, n = 3, glucose media, 48 hours, tested up to 3 μM
[17] = Table 8, n = 3, glycerol media, 48 hours, tested up to 3 μM
[18] = Table 8, n = 3, glucose media, 48 hours, tested up to 3 μM

Compound	IC50 ([2]; CACI17, 48 h) [µM]	IC50 [4, 9] [µM]	IC50 [5, 9] [µM]	IC50 [6, 10] [µM]	IC50 [7, 10] [µM]	solubility at 24 h [8] [µM]	IC50 [1, 11] [µM]	IC50 [2, 12] [µM]	Growth Inhibition Activity, IC50 (μM), 3T3 Fibroblasts (n = 1) [3]	IC50 [4, 13] [µM]	IC50 [5, 14] [µM]	IC50 [6, 15] [µM]	IC50 [7, 16] [µM]	further results
CCOC(=O)N1C(=O)C2(CCCCC2)N(c2ccc(Cl)cc2)C1=S [compound 56604865]	1.4	0.022	> 3	0.006	> 3	< 1	–	–	–	–	–	–	–	IC50 ([1]; Candida albicans, CACI2, read-out: Growth Inhibition Activity, IC50 (μM), C. albicans CaCi-2, values marked ‡): 0.06 µM; IC50 ([3]; Mus musculus, NIH3T3, 48 h, read-out: Growth Inhibition Activity, IC50 (μM), 3T3 Fibroblasts (n = 1)): 22.3 µM
CCOC(=O)N1C(=O)C2(CCCCC2)N(c2ccc(F)cc2)C1=S [compound 56604860]	–	–	–	–	–	–	0.04	1	Inactive	0.011	> 3	0.004	> 3	PBS Solubility ([8]; Table 4, PBS pH 7.4 with 1% DMSO, 24 hours, room temperature): 1.1 µM
C[C@@H]1[C@H](O)[C@@H](C)/C=C/C=C/C=C/C=C/C=C/C=C/C=C/[C@H](O[C@@H]2O[C@H](C)[C@@H](O)[C@H](N)[C@@H]2O)C[C@@H]2O[C@](O)(C[C@@H](O)C[C@@H](O)[C@H](O)CC[C@@H](O)C[C@@H](O)CC(=O)O[C@H]1C)C[C@H](O)[C@H]2C(=O)O [Amphotericin B, reference compound]	–	–	–	–	–	–	–	–	–	–	–	–	–	IC50 [4, 17]: 0.62 µM; Growth inhibition of C. glabrata on glycerol IC50 ([4]; figure legends and Tables 9, 10, 13, AID 623965): significantly inhibited; IC50 [5, 18]: 1.2 µM; Growth inhibition of C. glabrata on glucose IC50 ([5]; figure legends and Tables 9, 10, 13, AID 623967): significantly inhibited; IC50 [6, 17]: 0.26 µM; Growth inhibition of S. cerevisiae on glycerol IC50 ([6]; figure legends and Tables 9, 10, 13, AID 623969): significantly inhibited; IC50 [7, 18]: 0.38 µM; Growth inhibition of S. cerevisiae on glucose IC50 ([7]; figure legends and Tables 9, 10, 13, AID 623971): significantly inhibited
CCOC(=O)N1C(=O)C2(CCCCC2)N(c2ccc(C#N)cc2)C1=S [compound 56604847]	–	–	–	–	–	< 1	0.08	1.8	Inactive	0.033	> 3	0.004	> 3	–
CCOC(=O)N1C(=O)C2(CCCCC2)N(c2ccccc2)C1=S [compound 56604821]	4.2	0.026	> 3	0.015	> 3	1.6 (≈ 0.532 µg/mL)	–	–	Inactive	–	–	–	–	IC50 ([1]; Candida albicans, CACI2, 48 h, read-out: Growth Inhibition Activity, IC50 (μM), C. albicans (n = 3) CaCi-2): 0.2 µM
